In general, inhibition refers to how much of the control response was suppressed. Read a high inhibition as a response far below the control. What is called IC50 is the concentration that inhibits the measured activity by half.

The text below walks through data of patent US20120302618A1, “USE OF BENZYDAMINE IN THE TREATMENT OF P40-DEPENDENT DISEASES” (AZIENDE CHIM. RIUN. ANG. FRANC. A.C.R.A.F. S.p.A., priority 2009, published 2012).

“And” between values parts separate entries of the source, which are not always exact repeats. Equal entries are not always repeated.

The subject of experiment [1] is TNF. As to conditions: mice; cited from earlier work.
The test system of experiment [2] is TNF. The experiment in a line: Inhibition of TNF production by anti-CD3 stimulated human PBMCs (Luminex). The class given is cell-based. On the procedure: The capacity of the compound to inhibit the expression of the protein TNF by anti-CD3 stimulated human PBMCs (peripheral blood mononuclear cells) was evaluated. The cells were placed in 96-well plates at a concentration of 2×10^5 cells/well. The compound was tested on a 6-point ½-log dose curve (in the range 0.3-100 μM) and incubated for 1 hour. The cells were then stimulated with anti-CD3 (4 μg/ml) for 48 hours. The amount of TNF produced was measured in the supernatants, suitably diluted with buffer, by using the Luminex 100 system.

Experiment [3] relates to p40. The experiment in a line: Inhibition of p40 mRNA expression by LPS-stimulated MonoMac6 cells (real-time PCR). The class given is cell-based, human. As to conditions: 75 μM, 1 h preincubation, LPS 100 ng/ml for 4 h. On the procedure: The capacity of benzydamine to inhibit the expression of p40 by lipopolysaccharide (LPS)-stimulated MonoMac6 cells was evaluated. The cells were placed in 96-well plates at a concentration of 50 000 cells/well. The compound was tested at the concentration of 75 μM and incubated for 1 hour. The cells were then stimulated with LPS (100 ng/ml) for 4 hours. The total RNA was extracted from the cell pellet using the RNeasy mini kit (Qiagen), reverse-transcribed with the TaqMan Reverse transcription reagents synthesis kit (Applied Biosystems) and the cDNA obtained was used for the real-time PCR reaction. The amplification was obtained in 96-well plates using the ABI Prism 7000 sequence detection system (Applied Biosystems), by applying the following temperature profile: 50° C. for 2 minutes, 95° C. for 10 minutes and 45 cycles at 95° C. for 15 seconds and 60° C. for 1 minute. For the amplification, a set of primers and probe specific for human p40 was used (Applied Biosystems, RefSeq NM_002187.2). A set of primers and probe for β-actin was used in separate wells as an internal control of the samples for the purposes of normalization. Once the reaction had taken place, the fluorescence data were analysed using the ABI Prism 7000 SDS software, by calculating the threshold cycle (Ct) for each sample and subsequently performing a relative quantification via the ΔΔCt method.
Background: In qPCR the cycle at which signal appears reflects the starting amount.

For experiment [4], the system named is p40. The experiment in a line: Inhibition of p40 protein production by anti-CD3 stimulated human PBMCs (Luminex). The class given is cell-based. On the procedure:
The capacity of the compound to inhibit the production of the protein p40 by anti-CD3 stimulated human PBMCs (peripheral blood mononuclear cells) was evaluated. The cells were placed in 96-well plates at a concentration of 2×10^5 cells/well. The compound was tested on a 6-point ½-log dose curve (in the range 0.3-100 μM) and incubated for 1 hour. The cells were then stimulated with anti-CD3 (4 μg/ml) for 48 hours. The amount of p40 produced was measured in the supernatants, suitably diluted with buffer, by using the Luminex 100 system.

The mark [5] stands for this setting: 0 μM (so in the source), anti-CD3 4 μg/ml 48 h, human PBMCs.
Where [6] appears, read: PBMC, 1 μM, anti-CD3 4 μg/ml 48 h, human PBMCs.
Setting [7] is: PBMC, 3 μM, anti-CD3 4 μg/ml 48 h, human PBMCs.
The mark [8] stands for this setting: PBMC, 10 μM, anti-CD3 4 μg/ml 48 h, human PBMCs.
Setting [9] is: PBMC, 30 μM, anti-CD3 4 μg/ml 48 h, human PBMCs.
Setting [10] is: PBMC, 100 μM, anti-CD3 4 μg/ml 48 h, human PBMCs.
Setting [11] is: PBMC, anti-CD3 stimulated human PBMCs, 48 h.
[12] abbreviates: dose curve 0.3-100 μM, human PBMCs.

On to `CN(C)CCCOc1nn(Cc2ccccc2)c2ccccc12` [Benzydamine], for which the “dose required for a significant inhibiting effect on TNF production” value in experiment [1] was 20 mg/kg and 40 mg/kg. The “% inhibition of TNF production” value in experiment [2] (setting [5]) came to 7%. The inhibition at 1 µM is 8% in experiment [2] (setting [6]) and 23% in experiment [4] (setting [6]). For the same compound, the inhibition at 3 µM in experiment [2] (setting [7]) was 12%; in experiment [4] (setting [7]), 24%. Moreover, the inhibition at 10 µM in experiment [2] (setting [8]) was 22%; in experiment [4] (setting [8]), 44%. In addition, the inhibition at 30 µM in experiment [2] (setting [9]) was 44%; in experiment [4] (setting [9]), 97%. Moreover, the inhibition at 100 µM is 70% in experiment [2] (setting [10]) and 99% in experiment [4] (setting [10]). The IC50 in experiment [2] (setting [11]) worked out at 43.1 µM; in experiment [4] (setting [11]) it was 10.1 µM. Also, the “IC50 for TNF relative to IC50 for p40” value in experiment [2] (anti-CD3 stimulated human PBMCs) is listed as “about 4 fold”. In addition, in experiment [2] (setting [12]), the “inhibition of anti-CD3 induced TNF production, range over dose curve” value was 8-70%. In addition, the “% inhibition of LPS-induced p40 mRNA expression” value in experiment [3] is 80%. In addition, the “% inhibition of p40 production” value in experiment [4] (setting [5]) stood at 0%. Moreover, the “inhibition of anti-CD3 induced p40 production, range over dose curve” value in experiment [4] (setting [12]) is 23-99%.
